Source: US7144452B2, “Ink jet black ink, ink set, ink jet recording method, ink cartridge, recording unit, and ink jet recording apparatus” (Canon Kabushiki Kaisha, priority 2004, dated 2006)

Test: Relative permittivity of water-soluble organic solvent (LCR meter)
Assay type: physicochemical
Conditions: not given
Description: The relative permittivity of the water-soluble organic solvent of various types was measured with LCR Meter 4284A (manufactured by Hewlett-Packard Japan, Ltd.) under conditions of a room temperature of 20° C. and a measurement frequency of 1 MHz.

Structure (SMILES)	Relative permittivity (measurement frequency: 1 MHz)
OCCCCO [1,4-Butanediol]	31.3
OCCO [Ethylene glycol]	38.1

Same assay, conditions: room temperature of 20° C., 1 MHz

Structure (SMILES)	Relative permittivity (measurement frequency: 1 MHz)
OCCCCC(O)CO (stereo not drawn) [1,2,6-Hexanetriol]	28.5
CC(O)CO (stereo not drawn) [1,2-Propanediol]	32.2
O=C1CCCN1 [2-Pyrrolidone]	27.5
OCC(O)CO [Glycerol]	43.0
